From the supplement of paper PMC10307832

What was measured:
Test in all cases: relative viability (nuclei count vs DMSO), 5 days (fraction); higher = more cells survive
LU99A = system: LU99A
In short: (§1)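 Lung cancer cell lines were pin-tool dosed in 1536-well plates on the day after seeding, with either a lone drug or a fixed anchor-drug dose plus five library-drug doses (not always all listed) in √10 steps. Nuclei were counted on 4× images after 5 days. Relative viability is the ratio of treated-well to vehicle-well nuclei counts, with each value a median of duplicate plates.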

NCI-H1437 = system: NCI-H1437
In short: as §1

NCI-H1666 = system: NCI-H1666
In short: as §1

NCI-H1975 = system: NCI-H1975
In short: as §1

NCI-H2085 = system: NCI-H2085
In short: as §1

NCI-H2087 = system: NCI-H2087
In short: as §1

NCI-H2170 = system: NCI-H2170
In short: as §1

NCI-H647 = system: NCI-H647
In short: as §1

PC-3 [JPC-3] = system: PC-3 [JPC-3]
In short: as §1

SW 1573 = system: SW 1573
In short: as §1

O=c1cc(-c2cccc3c2Sc2ccccc2S3)oc(N2CCOCC2)c1 + CC1(C)CCC(c2ccc(Cl)cc2)=C(CN2CCN(c3ccc(C(=O)NS(=O)(=O)c4ccc(N[C@H](CCN5CCOCC5)CSc5ccccc5)c(S(=O)(=O)C(F)(F)F)c4)cc3)CC2)C1 [Navitoclax] (partner 0.5 µM)
relative viability (LU99A; first compound 0.08 µM): 0.809 | relative viability (LU99A; first compound 0.253 µM): 0.918 | relative viability (LU99A; first compound 0.8 µM): 0.84 | relative viability (LU99A; first compound 2.53 µM): 0.786 | relative viability (LU99A; first compound 8 µM): 0.958 | relative viability (NCI-H1437; first compound 0.08 µM): 1.08 | relative viability (NCI-H1437; first compound 0.253 µM): 1.58 | relative viability (NCI-H1437; first compound 0.8 µM): 1.09 | relative viability (NCI-H1437; first compound 2.53 µM): 1.11 | relative viability (NCI-H1437; first compound 8 µM): 1.39 | relative viability (NCI-H1666; first compound 0.08 µM): 0.988 | relative viability (NCI-H1666; first compound 0.253 µM): 0.976 | relative viability (NCI-H1666; first compound 0.8 µM): 0.952 | relative viability (NCI-H1666; first compound 2.53 µM): 0.868 | relative viability (NCI-H1666; first compound 8 µM): 0.799 | relative viability (NCI-H1975; first compound 0.08 µM): 1.2 | relative viability (NCI-H1975; first compound 0.253 µM): 1.4 | relative viability (NCI-H1975; first compound 0.8 µM): 1.35 | relative viability (NCI-H1975; first compound 2.53 µM): 1.16 | relative viability (NCI-H1975; first compound 8 µM): 0.997 | relative viability (NCI-H2085; first compound 0.08 µM): 1.15 | relative viability (NCI-H2085; first compound 0.253 µM): 1.31 | relative viability (NCI-H2085; first compound 0.8 µM): 1.17 | relative viability (NCI-H2085; first compound 2.53 µM): 1.05 | relative viability (NCI-H2085; first compound 8 µM): 1.07 | relative viability (NCI-H2087; first compound 0.08 µM): 0.995 | relative viability (NCI-H2087; first compound 0.253 µM): 1.3 | relative viability (NCI-H2087; first compound 0.8 µM): 1.07 | relative viability (NCI-H2087; first compound 2.53 µM): 0.955 | relative viability (NCI-H2087; first compound 8 µM): 1.21 | relative viability (NCI-H2170; first compound 0.08 µM): 0.693 | relative viability (NCI-H2170; first compound 0.253 µM): 0.749 | relative viability (NCI-H2170; first compound 0.8 µM): 0.642 | relative viability (NCI-H2170; first compound 2.53 µM): 0.55 | relative viability (NCI-H2170; first compound 8 µM): 0.519 | relative viability (NCI-H647; first compound 0.08 µM): 1.2 | relative viability (NCI-H647; first compound 0.253 µM): 1.15 | relative viability (NCI-H647; first compound 0.8 µM): 1.12 | relative viability (NCI-H647; first compound 2.53 µM): 1.04 | relative viability (NCI-H647; first compound 8 µM): 1.37 | relative viability (PC-3 [JPC-3]; first compound 0.08 µM): 0.836 | relative viability (PC-3 [JPC-3]; first compound 0.253 µM): 0.779 | relative viability (PC-3 [JPC-3]; first compound 0.8 µM): 0.897 | relative viability (PC-3 [JPC-3]; first compound 2.53 µM): 0.767 | relative viability (PC-3 [JPC-3]; first compound 8 µM): 0.992 | relative viability (SW 1573; first compound 0.08 µM): 0.999 | relative viability (SW 1573; first compound 0.253 µM): 1.14 | relative viability (SW 1573; first compound 0.8 µM): 1.04 | relative viability (SW 1573; first compound 2.53 µM): 1.12 | relative viability (SW 1573; first compound 8 µM): 1.17
